Assay results from publication PMC3386930, “Altering APP Proteolysis: Increasing sAPPalpha Production by Targeting Dimerization of the APP Ectodomain” (PLoS ONE, 2012).

Tests used:
[1] = system: APP; conditions: cited from earlier work
Description: These changes in conformation may be important in setting the balance between α-cleavage and β-cleavage of APP because the relative rates of these cleavages are known to be affected by interactions between APP and a number of proteins, both at the cell surface and during recycling of APP [19], [20]. Altering the balance of these two cleavages to favor α-cleavage is of potential therapeutic benefit for Alzheimer's disease since it would reduce Aβ production and enhance sAPPα production, without inhibition of the beta and gamma secretases. A precedent exists for this effect in that an increa ...

[2] = target: T1, eAPP230–624 (Homo sapiens, UniProt P05067); test: Small-angle X-ray scattering (SAXS) of eAPP230–624 complexes; format: binding
T1 construct: made in house
Procedure: The samples were incubated on ice for 20 minutes and then concentrated to 50 µl with 10-kDa cutoff concentrators (Millipore). […] Samples of the filtrates were used for buffer subtraction.
The samples were then concentrated and purified with a Superdex S200 size-exclusion column with 20 mM Tris pH 7.4, 100 mM sodium chloride and 2 mM EDTA. Samples of the protein buffer from the size-exclusion columns were used for buffer subtraction.
Data collection and processing
Small-angle X-ray scattering data were collected using protein concentrations in the range of 0.5–3 mg/ml and an X-ray wavelength of 1.11 Å at beam line 12.3.1 (Advanced Light Source). Data were integrated with software customized for the beam line and processed with the program PRIMUS [30]. The program GNOM [31] was used to calculate the maximum dimension and the radius of gyration and to estimate the intensity of the scattering at zero angle for higher concentration samples.

[3] = target: T1, eAPP230–624; test: Intrinsic tryptophan fluorescence of eAPP230–624; format: binding; conditions: for quenching constant (Ksv): linear part, equation 1
Procedure: The excitation spectra of the intrinsic tryptophan fluorescence were recorded using either a Shimadzu RF-530PC (Shimadzu Scientific Instruments) or a Spectramax XPS spectrophotometer (Molecular Devices).
Full emission spectra were measured with the Shimadzu RF-530PC using a 3 ml quartz cuvette, a 5 nm slit width and protein concentrations between 0.2–0.6 µM. […] For these larger dilutions, control titrations with the protein alone were used to generate a scaling matrix where the scale factor was both a function of wavelength and dilution. […] A similar scaling matrix was used to correct for the effect of dilution with DMSO. […] All titrations were performed at 24°C. The oligomers were stored on ice during the experiment.
These concentrations are analogous to concentrations used to create complexes for the small angle x-ray scattering analysis. The incubated material was diluted with PBS so that the final protein concentration was 0.5 µM. The spectra were recorded with the Shimadzu […].
For experiments with the Spectromax XPS plate reader, an excitation wavelength of 295 nm was used. This excitation wavelength was chosen to minimize both the contribution of tyrosine in the protein and the background fluorescence of the 96-well plates (Costar #3915).
For the quenching experiments, the data were analyzed by constructing Stern-Volmer plots, F0/F vs. Q, where Fo is the intensity of the fluorescence at zero concentration, F is the intensity of the fluorescence, and Q is the concentration of the quenching agent. When quenching is through either a static (binding) or dynamic (collisional) mechanism this plot is linear and follows the equation: [drawing 1] (1) where Ksv is the quenching constant. When both processes are present the Stern-Volmer plot is quadratic: [drawing 2] (2) where KD is the equilibrium constant associated with dynamic quenching and Ks is the equilibrium constant associated with static quenching. All parameters were determined using PRISM (GraphPad) and the appropriate non-linear curve fitting routine.
The centroid wavelength (λc) was calculated as: [drawing 3] (3) where I(λi) is the intensity observed for the wavelength (λi). The range of wavelengths was 310–390 nm.

[4] = system: neuronal cells; conditions: similar activity; reference not printed with this sentence, 42 for APP319–335; cited from earlier work
Description: A 17-amino acid peptide (APP319–335) that contains the RERMS sequence is an example of such a compound. […] The mechanism by which the RERMS peptide enhances the producti ...

[5] = target: T1, eAPP230–624; test: Difference absorption spectra of eAPP230–624; format: binding; conditions: one-to-ten molar ratio protein to 1,8-ANS; 3 µM eAPP230–624
[6] = system: Aβ oligomers; conditions: cited from earlier work
[7] = 0.64 µM eAPP230–624, RERMS 0–270 µM

T1 sequence (P05067 230-624 isoform P05067-4): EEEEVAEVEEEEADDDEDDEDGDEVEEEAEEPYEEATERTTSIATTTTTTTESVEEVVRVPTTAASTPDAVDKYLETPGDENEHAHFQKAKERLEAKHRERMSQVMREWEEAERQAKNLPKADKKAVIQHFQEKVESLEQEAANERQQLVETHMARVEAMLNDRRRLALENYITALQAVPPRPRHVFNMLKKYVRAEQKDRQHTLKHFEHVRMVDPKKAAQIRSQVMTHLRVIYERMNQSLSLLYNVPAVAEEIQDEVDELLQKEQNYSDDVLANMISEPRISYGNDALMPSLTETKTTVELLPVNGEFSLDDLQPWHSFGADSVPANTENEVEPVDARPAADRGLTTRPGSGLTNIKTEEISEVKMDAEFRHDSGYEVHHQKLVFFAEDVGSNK

## sAPPα: product of α-cleavage of APP; contains almost the entire ectodomain
[1]
  inhibition of APP dimerization and cell survival (in words): inhibit APP dimerization and increase cell survival

## RERMS [The RERMS peptide itself (APP 328–332)]
[2]; SAXS of complex
  SAXS form of eAPP230–624 complex (in words): dimer with a significantly smaller maximum dimension and radius of gyration than the native dimer
[2]; SAXS relative mass, MWseq 45-kDa for eAPP230–624, max. error ±0.2, monomer around 1.3, protein alone 2.0
  MWcalc/MWseq: 1.8
[2]; SAXS, maximum dimension, GNOM, max. estimated error ±10 Å, eAPP230–624 with peptide
  Dmax: 130 Å
[2]; SAXS, radius of gyration, GNOM, max. estimated error ±2 Å, eAPP230–624 with peptide
  Rg: 39 Å
[3]; [7]
  red-shift in the centroid wavelength: 1 nm
  red-shift in the peak position: approximately 2 nm
[3]; 0.64 µM eAPP230–624, RERMS 0–270 µM (1:0–1:420)
  effect on intensity of intrinsic fluorescence (in words): quenches the intensity of the intrinsic fluorescence
[4]
  fold reduced potency vs APP319–335: 10 -fold

## O=S(=O)(O)c1cccc2cccc(Nc3ccccc3)c12 [1,8-ANS, 1-anilinonaphthalene-8-sulfonic acid]
[3]; 1,8-ANS below 50 µM (1:14 protein to 1,8-ANS molar ratio)
  fluorescence intensity drop: more than 50%
[3]; 1,8-ANS greater than 150 µM
  quenching of fluorescence at high concentration: quench nearly all the fluorescence
[3]; 1:20 protein to 1,8-ANS molar ratio, excitation wavelengths greater than 285 nm
  quenching of intrinsic fluorescence (FRET): efficiently quenched the intrinsic fluorescence
[3]; 345 nm, Shimadzu RF-530PC, 0.64 µM eAPP230–624, 24°C
  quenching constant (Ksv): 9.3 ± 0.1 mM⁻¹
[3]; 375 nm, Shimadzu RF-530PC, 0.64 µM eAPP230–624, 24°C
  quenching constant (Ksv): 10.9 ± 0.2 mM⁻¹
[3]; 375 nm, Spectramax XPS plate reader
  quenching constant (Ksv): 9.6 ± 0.3 mM⁻¹
[5]
  effect on absorption of eAPP230–624: significant effect on the absorption
[6]
  binding to Aβ oligomers and Aβ aggregation: bind to Aβ oligomers and prevent Aβ aggregation
